In the first experiment the target is BTK (Homo sapiens, UniProt Q06187). The experiment can be described thus: biochemical. The settings on record: read-out: BTK inhibition (%).
Chain of BTK (Q06187 402-655 limits assumed): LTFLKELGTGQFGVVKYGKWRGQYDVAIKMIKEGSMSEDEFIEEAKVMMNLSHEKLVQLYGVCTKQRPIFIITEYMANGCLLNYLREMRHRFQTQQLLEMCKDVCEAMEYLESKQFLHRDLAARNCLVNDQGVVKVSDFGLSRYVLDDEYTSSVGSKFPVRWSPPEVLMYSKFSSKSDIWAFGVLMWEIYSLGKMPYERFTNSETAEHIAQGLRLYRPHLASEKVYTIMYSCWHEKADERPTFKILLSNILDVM
Regarding `C[C@H]1CC(=O)C[C@@H]2CC[C@H]3[C@@H]4CC[C@H](O)[C@@]4(C)CC[C@@H]3[C@]21C` [PCM-0214988], the inhibition (usually the drop in the measured response relative to a control, in per cent) at 10 µM was -20.2%.
Take `CN1c2ccccc2C(NCCCCCCC(=O)O)c2ccc(Cl)cc2S1(=O)=O` (centres unmarked) [PCM-0095097]: the inhibition at 10 µM is -13.2%.

Staying with this experiment, now noted: read-out: BTK inhibition (%), 0.75 uM BTK, […] probe 3l, 15 min preincubation.
Take `CCN(CC)c1ccc(/C=N/NC(=O)c2ccc(O)cc2)cc1` [PCM-0216144]: the inhibition at 10 µM was found to be 0%.
With `CNC(=O)c1cccc(-c2ccc3c(N4CCOC[C@@H]4C)nc(N4CCOC[C@@H]4C)nc3n2)c1` [PCM-0095362], the inhibition at 10 µM is -2.8%.
For `CCCNC(C)C(=O)Nc1c(C)csc1C(=O)OC` (centres unmarked) [PCM-0086324], the inhibition at 10 µM is -13.2%.
On to `CN([C@@H](Cc1ccc(OS(=O)(=O)c2cccc3cnccc23)cc1)C(=O)N1CCN(c2ccccc2)CC1)S(=O)(=O)c1cccc2cnccc12` [PCM-0215309], for which the inhibition at 10 µM came out at 2.1%.
As to `CCOC(=O)C1=C(C)NC(C)=C(C(=O)OCC)C1` [PCM-0216569], the inhibition at 10 µM came out at 10.8%.
The same measure, in the same setting: to `CNc1ccc([N+](=O)[O-])c(Nc2ccc3[nH]ncc3c2)n1` [PCM-0215769] belongs 32.4%; to `NC(=O)N1CCC(CC(=O)N2CCC([C@H]3c4ncc(Br)cc4CCc4cc(Cl)cc(Br)c43)CC2)CC1` [PCM-0095392], 32.7%.
On the same count and under the same terms, under `Cc1cn([C@H]2C[C@H](O)[C@@H](CO)O2)c(=O)[nH]c1=O` [PCM-0215065] stands -11.7%; under `CC(C)OC(=O)CCC/C=C\C[C@@H]1[C@@H](/C=C/C(F)(F)COc2ccccc2)[C@H](O)C[C@@H]1O` [PCM-0216028], -61.5%.
Still for that read-out and setting: to `N#CC(=C(/N)Sc1ccccc1N)/C(C#N)=C(\N)Sc1ccccc1N` [PCM-0064783] belongs -4.1%.
Take `CN(C)c1cccc(-c2c3c(=O)n(-c4ccccc4Cl)[nH]c3cc(=O)n2C)c1` [PCM-0215425]: the inhibition at 10 µM was -1.4%.
As for `CS(=O)(=O)c1ccc(C(=O)Nc2ccc(Cl)c(-c3ccccn3)c2)c(Cl)c1` [PCM-0095048], the inhibition at 10 µM came out at 6.2%.
For `C[C@@H]1CCCC2=CC(=O)[C@@H]3[C@@H](C3(C)C)[C@]21C` [PCM-0216523], the inhibition at 10 µM is -8.5%.
For `Cc1c(C(C)C)c(=O)n(-c2ccccc2)n1C` [PCM-0216024], the inhibition at 10 µM is -11.7%.
The same measure, in the same setting: under `COc1ccc(/C=C\c2cc(OC)c(OC)c(OC)c2)cc1OP(=O)(O)O` [PCM-0215231] stands -27.2%.
Turning to `O=C(O)CCn1c2c(c3ccccc31)C[C@H](NS(=O)(=O)c1ccc(F)cc1)CC2` [PCM-0101878], the inhibition at 10 µM was -15.4%.
As for `O=C(O)CCCCC1CCSS1` (centres unmarked) [PCM-0090722], the inhibition at 10 µM was -16.3%.
On to `Oc1ccc([C@H]2COc3cc(O)ccc3C2)cc1` [PCM-0095319], for which the inhibition at 10 µM is -6.2%.
Still for that read-out and setting: under `CC1=C(/C=C/C(C)=C/C=C/C(C)=C/C(=O)O)C(C)(C)CCC1` [PCM-0065434] stands -32.7%; under `C=C(C)[C@@H]1CC[C@@]2(C)CCC(=O)C(C)=C2C1` [PCM-0216488], -11.6%; under `COc1cc2c3c(c1OC)-c1ccccc1C[C@H]3N(C)CC2` [PCM-0215922], -12.8%.
For `CN(C)c1cc(NC(=O)CNC(C)(C)C)c(O)c2c1C[C@H]1C[C@H]3[C@H](N(C)C)C(=O)C(C(N)=O)=C(O)[C@@]3(O)C(=O)C1=C2O` [PCM-0214621], the inhibition at 10 µM came to 32.7%.
Still for that read-out and setting: under `COc1ccccc1N1CCN(CCCNc2cc(=O)n(C)c(=O)n2C)CC1` [PCM-0064976] stands -0.8%; under `COc1ccccc1` [PCM-0216198], -14.7%.
On to `CC[C@@H]1CN2CC[C@@]3(C(=O)Nc4ccccc43)[C@@H]2C[C@@H]1/C(=C\OC)C(=O)OC` [PCM-0216594], for which the inhibition at 10 µM is -15.4%.
With `O=C(Nc1cc(C(F)(F)F)cc(C(F)(F)F)c1)c1cc(Cl)ccc1O` [PCM-0095509], the inhibition at 10 µM worked out at 42.8%.
The same measure, in the same setting: under `CC(C[N+](C)(C)C)OC(N)=O` (centres unmarked) [PCM-0064662] stands -7%; under `CCC(C)(C)C(=O)O[C@H]1C[C@@H](C)C=C2C=C[C@H](C)[C@H](CC[C@@H]3C[C@@H](O)CC(=O)O3)[C@H]21` [PCM-0214653], -13.1%.
On the same count and under the same terms, to `C=C(C)[C@@H]1CC[C@]2(C(=O)O)CC[C@]3(C)[C@H](CC[C@@H]4[C@@]5(C)CC[C@H](O)C(C)(C)[C@@H]5CC[C@]43C)[C@@H]12` [PCM-0214730] belongs 3.9%; to `COc1ccc(S(=O)(=O)NCc2ccc(C(=O)NCCc3ccc(Cl)cn3)cc2)cc1` [PCM-0215817], -22.4%; to `CC(C)(C#N)c1ccc(N2C(=O)OCc3cnc4ccc(-c5cnc6ccccc6c5)cc4c32)cc1` [PCM-0215242], -4.8%.
The same measure, in the same setting: to `O=C(O)CCn1c(O)c(C2=c3cc(Cl)ccc3=NC2=O)sc1=S` [PCM-0215854] belongs 0.8%.
Turning to `CN(CCO)CC(O)Cn1cnc2c1c(=O)n(C)c(=O)n2C` (centres unmarked) [PCM-0215123], the inhibition at 10 µM is 9.3%.
The same measure, in the same setting: under `C=C[C@]1(C)C[C@@H](OC(=O)CSC(C)(C)CNC(=O)[C@H](N)C(C)C)[C@]2(C)[C@H](C)CC[C@]3(CCC(=O)[C@H]32)[C@@H](C)[C@@H]1O` [PCM-0214765] stands 20.2%.
On the same count and under the same terms, to `O=C1C(=Cc2ccncc2)CCCC1=Cc1ccncc1` [PCM-0216087] belongs -4.1%; to `c1cc(CN2CCCNCCNCCCNCC2)ccc1CN1CCCNCCNCCCNCC1` [PCM-0095456], 6.8%; to `COc1ccc2c(c1)=C(CC(=O)N1CCOCC1)C(C)(C(=O)c1ccc(Cl)cc1)N=2` (centres unmarked) [PCM-0095476], -2.3%.
On the same count and under the same terms, under `CO[C@@H](C(=O)N1Cc2[nH]nc(NC(=O)c3ccc(N4CCN(C)CC4)cc3)c2C1)c1ccccc1` [PCM-0094888] stands 85.5%; under `COc1c(-c2ccc3cc(NS(C)(=O)=O)ccc3c2)cc(-n2ccc(=O)[nH]c2=O)cc1C(C)(C)C` [PCM-0216081], 73.4%.
For the compound `CC(C)C1=CC2=CC[C@@H]3[C@](C)(CCC[C@@]3(C)C(=O)O)[C@H]2CC1` [PCM-0215977], the inhibition at 10 µM is -9.3%.
With `Cc1c(Cl)c(OCC(=O)N2CCN(C)CC2)nc2sc(C(=O)NC3CC3)c(N)c12` [PCM-0215380], the inhibition at 10 µM was -10.8%.
As to `C[C@H](NC(=O)Cc1cc(F)cc(F)c1)C(=O)N[C@H](C(=O)OC(C)(C)C)c1ccccc1` [PCM-0095251], the inhibition at 10 µM was -29%.
Still for that read-out and setting: under `O=C(O)C(O)Cc1ccc(O)c(O)c1` (centres unmarked) [PCM-0089145] stands 18.7%; under `COc1ccc(C[C@@H](C)NC[C@H](O)c2ccc(O)c(NC=O)c2)cc1` [PCM-0086341], 7%.
Regarding `Cc1noc(C)c1-c1ccc(-c2cc(C(N)=O)c(NC(N)=O)s2)c(O[C@H]2CCNC2)c1` [PCM-0215541], the inhibition at 10 µM is 74.1%.
Turning to `C[C@@H](O)[C@H]1C(=O)N2C(C(=O)[O-])=C(SC3Cn4cnc[n+]4C3)[C@H](C)[C@H]12` (some centres unmarked) [PCM-0215353], the inhibition at 10 µM was -18.7%.
Still for that read-out and setting: to `COC(=O)C1=CO[C@@H](O[C@@H]2O[C@H](CO)[C@@H](O)[C@H](O)[C@H]2O)[C@@H]2C(CO)=C[C@H](O)[C@H]12` [PCM-0216324] belongs -7.7%; to `CN(C(=O)CNC(=O)/C=C/c1cccc(Cl)c1)C1CCS(=O)(=O)CC1` [PCM-0215630], -13.9%; to `CC(=O)OC/C=C(\C)CCC=C(C)C` [PCM-0216003], 2.3%.
The same measure, in the same setting: under `O=C(NCCO[N+](=O)[O-])c1cccnc1` [PCM-0085806] stands -5.4%.
Turning to `Cc1c(CN2CCC(Nc3ncnc4sc(CC(F)(F)F)cc34)CC2)ccc2[nH]c(C#N)cc12` [PCM-0215775], the inhibition at 10 µM came out at 32.4%.
On the same count and under the same terms, under `CC(/C=C/C=C(\C)C(=O)O[C@@H]1O[C@H](CO)[C@@H](O)[C@H](O)[C@H]1O)=C\C=C\C=C(C)\C=C\C=C(/C)C(=O)O[C@@H]1O[C@H](CO[C@@H]2O[C@H](CO)[C@@H](O)[C@H](O)[C@H]2O)[C@@H](O)[C@H](O)[C@H]1O` [PCM-0216484] stands 16.2%; under `CCN(CC)C[C@@H](O)CNc1ccc(NC[C@H]2CO2)c2c1C(=O)c1ccccc1C2=O` [PCM-0215722], 57.9%; under `CO[C@@H]1[C@@H](O[C@@H]2O[C@H](C)[C@@H](O[C@H]3C[C@@](C)(O)[C@@H](O)[C@H](C)O3)[C@H](N(C)C)[C@H]2O)[C@@H](CC=O)C[C@@H](C)[C@@H](O[C@H]2CC[C@H](N(C)C)[C@@H](C)O2)/C=C/C=C/C[C@@H](C)OC(=O)C[C@H]1OC(C)=O` [PCM-0214867], 14%.
The same measure, in the same setting: under `CCc1cncnc1N1CCN(Cc2nc3ccc(C(F)(F)F)cc3[nH]2)CC1` [PCM-0065022] stands -22.8%; under `CC(C)=CCC[C@](C)(O)[C@H]1CC[C@]2(C)[C@@H]1[C@H](O)C[C@@H]1[C@@]3(C)CC[C@H](O)C(C)(C)[C@@H]3[C@@H](O[C@@H]3O[C@H](CO)[C@@H](O)[C@H](O)[C@H]3O)C[C@]12C` [PCM-0216412], -10.8%; under `CN1CCN(Cc2ccc(-c3cnc4[nH]cc(-c5ccc6[nH]ccc6c5)c4c3)cc2)CC1` [PCM-0215377], 111%.
Turning to `C[C@@H](O)[C@H]1C(=O)N2C(C(=O)O)=C(S[C@@H]3CN[C@H](C(=O)Nc4cccc(C(=O)O)c4)C3)[C@H](C)[C@H]12` [PCM-0216643], the inhibition at 10 µM turned out to be 0.8%.
As to `OC[C@H]1O[C@@H](Oc2cc(O)cc(/C=C/c3ccc(O[C@@H]4O[C@H](CO)[C@@H](O)[C@H](O)[C@H]4O)cc3O)c2)[C@H](O)[C@@H](O)[C@@H]1O` [PCM-0216371], the inhibition at 10 µM was -5.4%.
With `O=c1ccc2cc(O)ccc2o1` [PCM-0216289], the inhibition at 10 µM was -10%.
Still for that read-out and setting: to `CC#CC(=O)Nc1ccc2ncnc(Nc3cccc(Br)c3)c2c1` [PCM-0215449] belongs 103%.
`CN1c2ccccc2C(=O)Nc2cnc(Nc3ccc(N4CCC(O)CC4)cc3)nc21` [PCM-0215745]: the inhibition at 10 µM came out at 93.8%.
Consider `Oc1cc(O)c2c(c1)OC(c1ccc(O)c(O)c1)C(OC1(c3ccc(O)c(O)c3)Oc3cc(O)cc(O)c3C(O)C1O)C2` (centres unmarked) [PCM-0215931], for which the inhibition at 10 µM is 85.7%.

(Values after article PMC8041284, “Tunable Methacrylamides for Covalent Ligand Directed Release Chemistry” (Journal of the American Chemical Society, 2021).)
